Twelve compounds from ChEMBL document CHEMBL4819069, “Discovery of multifunctional anti-Alzheimer's agents with a unique mechanism of action including inhibition of the enzyme butyrylcholinesterase and γ-aminobutyric acid transporters” (Eur J Med Chem, 2021) can be followed below.

pIC50: −log10 of the molar value.

As usually defined, the pIC50 is −log10 of the IC50, conventionally taken in molar units. Usually inhibition stands for the relative decrease from the control value, in per cent.

Data set [1] has as its target Cholinesterase (Equus caballus, UniProt P81908).
Description: Inhibition of equine serum BuChE using butyrylthiocholine as substrate preincubated for 5 mins followed by substrate addition and measured after 5 mins by Ellman's method
In data set [2] the target is Acetylcholinesterase (Electrophorus electricus) (UniProt O42275). Kind of data set: Inhibition of electric eel AChE at 10 uM using acetylthiocholine as substrate preincubated for 5 mins followed by substrate addition and measured after 5 mins by Ellman's method relative to control. To be noted: time 10.0 min. A general note: In Ellman's method for cholinesterases, released thiocholine reacts with DTNB.

The target in data set [3] is T1, Beta-secretase 1 (Homo sapiens, UniProt P56817). To be noted: dose 50.0 µM, time 60.0 min.
For a further data set, the target named is T2, GABA transporter 4 (Mus musculus, UniProt P31650).
T2 sequence (P31650 whole entry): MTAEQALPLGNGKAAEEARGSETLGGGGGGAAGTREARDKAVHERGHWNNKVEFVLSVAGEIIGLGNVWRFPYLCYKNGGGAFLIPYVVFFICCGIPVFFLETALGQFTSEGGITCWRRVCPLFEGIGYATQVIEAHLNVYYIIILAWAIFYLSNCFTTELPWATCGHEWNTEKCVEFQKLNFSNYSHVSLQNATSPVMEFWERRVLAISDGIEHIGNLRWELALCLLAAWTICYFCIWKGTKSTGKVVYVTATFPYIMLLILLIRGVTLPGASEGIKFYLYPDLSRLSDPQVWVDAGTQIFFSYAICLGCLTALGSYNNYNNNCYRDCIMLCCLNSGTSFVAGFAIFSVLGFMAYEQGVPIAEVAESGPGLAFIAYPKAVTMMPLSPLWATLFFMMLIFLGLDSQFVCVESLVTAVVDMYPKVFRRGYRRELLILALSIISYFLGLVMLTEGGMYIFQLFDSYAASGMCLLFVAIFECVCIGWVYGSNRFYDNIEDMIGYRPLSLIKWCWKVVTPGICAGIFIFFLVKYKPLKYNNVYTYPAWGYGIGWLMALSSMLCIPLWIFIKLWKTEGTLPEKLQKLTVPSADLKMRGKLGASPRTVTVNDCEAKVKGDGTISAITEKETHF
The data set is described as follows: Inhibition of mouse GAT4 expressed in HEK293 cell line assessed as reduction in [3H]GABA uptake incubated for 10 mins. It is filed as cell-based.

The target of data set [4] is Amyloid-beta precursor protein (Homo sapiens) (UniProt P05067). The data set is described as follows: Inhibition of HFIP-pretreated amyloid beta (1 to 42) (unknown origin) aggregation at 10 uM after 36 to 48 hrs by thioflavin-T fluorescence assay relative to control. To be noted: time 36-48 hrs.
For data set [5], the target named is T3, Sodium- and chloride-dependent GABA transporter 1 (Mus musculus, UniProt P31648). Kind of data set: Inhibition of NO711 binding to mouse GAT1 expressed in HEK cell membranes incubated for 40 mins in presence of NO711 by LC-ESI-MS/MS analysis. The arrangement: species or system Membrane.
For data set [6], the target named is T3, Sodium- and chloride-dependent GABA transporter 1. The data set is described as follows: Inhibition of mouse GAT1 expressed in HEK293 cell line assessed as reduction in [3H]GABA uptake incubated for 10 mins. It is filed as cell-based.
Data set [7] has as its target T4, Cholinesterase (Homo sapiens, UniProt P06276).
Description: Inhibition of human BuchE using butyrylthiocholine as substrate preincubated for 5 mins followed by substrate addition and measured after 5 mins by Ellman's method
Data set [8] is described as follows: Neurotoxicity against mouse HT22 cells assessed as cell viability at 10 uM incubated for 24 hrs by MTT assay. It is filed as cell-based, HT-22. To be noted: ht-22, 24 h, 10 µM. Background: Tetrazolium dyes change colour on reduction, which living cells bring about.
Data set [9] is described as follows: Neurotoxicity against mouse HT22 cells assessed as cell viability at 30 uM incubated for 24 hrs by MTT assay. It is filed as cell-based, HT-22. To be noted: ht-22, 24 h, 30 µM.
In data set [10] the target is T1, Beta-secretase 1.
In data set [11] the target is T5, GABA transporter 3 (Mus musculus) (UniProt P31649).
T5 sequence (whole entry): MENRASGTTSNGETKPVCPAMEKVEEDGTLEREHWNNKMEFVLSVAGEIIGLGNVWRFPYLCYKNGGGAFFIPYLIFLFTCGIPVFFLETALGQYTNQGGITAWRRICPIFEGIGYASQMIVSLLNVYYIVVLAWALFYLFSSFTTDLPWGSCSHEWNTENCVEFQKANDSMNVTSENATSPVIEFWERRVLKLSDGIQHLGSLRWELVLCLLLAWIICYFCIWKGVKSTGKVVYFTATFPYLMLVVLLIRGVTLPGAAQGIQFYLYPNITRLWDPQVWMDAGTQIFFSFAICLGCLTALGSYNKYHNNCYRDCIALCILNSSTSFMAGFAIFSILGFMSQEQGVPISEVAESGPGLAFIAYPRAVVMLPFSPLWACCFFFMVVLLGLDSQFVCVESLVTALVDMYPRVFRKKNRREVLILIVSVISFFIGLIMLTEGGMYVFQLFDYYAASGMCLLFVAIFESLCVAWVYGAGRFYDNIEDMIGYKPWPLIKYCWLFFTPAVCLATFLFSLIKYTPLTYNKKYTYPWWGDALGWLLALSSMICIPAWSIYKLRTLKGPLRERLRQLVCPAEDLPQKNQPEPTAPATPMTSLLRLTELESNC
Kind of data set: Inhibition of mouse GAT2 expressed in HEK293 cell line assessed as reduction in [3H]GABA uptake at 100 uM incubated for 10 mins relative to control. It counts as cell-based.

Data set [12] has as its target T4, Cholinesterase. The data set is described as follows: Inhibition of human BuchE at 1 uM using butyrylthiocholine as substrate preincubated for 5 mins followed by substrate addition and measured after 5 mins by Ellman's method relative to control. To be noted: time 10.0 min.
The target of data set [13] is Sodium- and chloride-dependent GABA transporter 1 (Mus musculus) (UniProt P31648). Kind of data set: Inhibition of NO711 binding to mouse GAT1 expressed in HEK cell membranes at 100 uM incubated for 40 mins in presence of NO711 by LC-ESI-MS/MS analysis relative to control. To be noted: Membrane.
Data set [14] concerns the target T6, GABA transporter 4 (Mus musculus) (UniProt P31650).
T6 sequence (whole entry): T2 sequence (P31650 whole entry)
The data set is described as follows: Inhibition of mouse GAT3 expressed in HEK293 cell line assessed as reduction in [3H]GABA uptake at 100 uM incubated for 10 mins relative to control. It counts as cell-based.

A short description of data set [15]: Hepatotoxicity in human HepG2 cells at 50 to 100 uM incubated for 72 hrs by MTS assay. It counts as cell-based. To be noted: hepg2, 72 h, dose 50-100 µM.
The next data set addresses Cytochrome P450 2D6 (Homo sapiens, UniProt P10635). Kind of data set: Inhibition of CYP2D6 (unknown origin) at 10 uM. It counts as ADME.
A short description of data set [16]: Hepatotoxicity in human HepG2 cells at 1 uM incubated for 72 hrs by MTS assay. It is filed as cell-based. To be noted: hepg2, 72 h.
Data set [17] in a line: Metabolic stability in human liver microsomes assessed as parent compound remaining after 120 mins in presence of NADPH regeneration system by UPLC/MS anlaysis. It is filed as ADME, Microsome. To be noted: read-out: Stabilty. In general terms: Liver microsomes are a subcellular fraction often used to study metabolism.
A further data set concerns the target Cytochrome P450 3A4 (Homo sapiens, UniProt P08684). Kind of data set: Inhibition of CYP3A4 (unknown origin) at 10 uM. It counts as ADME.
For data set [18], the target named is Cholinesterase (Equus caballus) (UniProt P81908). The data set is described as follows: Inhibition of equine serum BuChE at 10 uM using butyrylthiocholine as substrate preincubated for 5 mins followed by substrate addition and measured after 5 mins by Ellman's method relative to control. To be noted: time 10.0 min.
Data set [19] addresses Sodium- and chloride-dependent GABA transporter 1 (Mus musculus) (UniProt P31648). The data set is described as follows: Inhibition of mouse GAT1 expressed in HEK293 cell line assessed as reduction in [3H]GABA uptake at 100 uM incubated for 10 mins relative to control. It is filed as cell-based.
Data set [20] addresses T6, GABA transporter 4 (Mus musculus). The data set is described as follows: Inhibition of mouse GAT4 expressed in HEK293 cell line assessed as reduction in [3H]GABA uptake at 100 uM incubated for 10 mins relative to control. It counts as cell-based.

Cholinesterase (Equus caballus), sequence (P81908 whole entry): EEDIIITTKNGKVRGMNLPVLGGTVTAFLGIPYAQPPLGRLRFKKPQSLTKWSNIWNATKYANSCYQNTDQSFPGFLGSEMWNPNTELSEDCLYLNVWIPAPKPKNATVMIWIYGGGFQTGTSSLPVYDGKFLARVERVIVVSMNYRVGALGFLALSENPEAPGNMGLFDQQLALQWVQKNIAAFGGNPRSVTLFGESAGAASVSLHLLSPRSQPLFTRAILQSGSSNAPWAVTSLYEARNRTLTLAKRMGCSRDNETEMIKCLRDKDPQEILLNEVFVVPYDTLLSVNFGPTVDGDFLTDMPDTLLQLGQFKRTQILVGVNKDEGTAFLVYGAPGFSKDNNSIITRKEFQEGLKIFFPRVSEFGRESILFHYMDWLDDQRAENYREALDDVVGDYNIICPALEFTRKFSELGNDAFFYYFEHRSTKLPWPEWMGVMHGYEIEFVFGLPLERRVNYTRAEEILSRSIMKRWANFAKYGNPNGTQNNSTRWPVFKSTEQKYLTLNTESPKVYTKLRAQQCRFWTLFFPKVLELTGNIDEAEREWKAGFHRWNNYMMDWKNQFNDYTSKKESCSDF
Cholinesterase (Equus caballus, UniProt P81908), sequence (P81908 whole entry): as above
Acetylcholinesterase (Electrophorus electricus), sequence (O42275 24-633 limits assumed): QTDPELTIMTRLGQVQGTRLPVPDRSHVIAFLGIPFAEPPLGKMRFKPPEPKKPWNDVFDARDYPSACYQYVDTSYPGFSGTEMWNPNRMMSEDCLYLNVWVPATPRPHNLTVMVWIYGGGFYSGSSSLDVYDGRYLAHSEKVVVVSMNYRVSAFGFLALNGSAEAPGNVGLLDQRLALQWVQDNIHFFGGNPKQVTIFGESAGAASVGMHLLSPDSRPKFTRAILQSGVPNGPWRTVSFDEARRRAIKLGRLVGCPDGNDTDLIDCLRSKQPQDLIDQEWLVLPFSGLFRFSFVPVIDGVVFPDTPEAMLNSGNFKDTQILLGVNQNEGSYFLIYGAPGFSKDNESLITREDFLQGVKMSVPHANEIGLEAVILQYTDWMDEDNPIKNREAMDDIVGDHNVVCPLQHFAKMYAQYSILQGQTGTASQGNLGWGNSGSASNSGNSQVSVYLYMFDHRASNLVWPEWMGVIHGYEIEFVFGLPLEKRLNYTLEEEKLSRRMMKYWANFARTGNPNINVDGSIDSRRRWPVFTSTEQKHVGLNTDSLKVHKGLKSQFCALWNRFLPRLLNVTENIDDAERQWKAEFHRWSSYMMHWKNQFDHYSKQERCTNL
Amyloid-beta precursor protein (Homo sapiens), sequence (P05067 whole entry): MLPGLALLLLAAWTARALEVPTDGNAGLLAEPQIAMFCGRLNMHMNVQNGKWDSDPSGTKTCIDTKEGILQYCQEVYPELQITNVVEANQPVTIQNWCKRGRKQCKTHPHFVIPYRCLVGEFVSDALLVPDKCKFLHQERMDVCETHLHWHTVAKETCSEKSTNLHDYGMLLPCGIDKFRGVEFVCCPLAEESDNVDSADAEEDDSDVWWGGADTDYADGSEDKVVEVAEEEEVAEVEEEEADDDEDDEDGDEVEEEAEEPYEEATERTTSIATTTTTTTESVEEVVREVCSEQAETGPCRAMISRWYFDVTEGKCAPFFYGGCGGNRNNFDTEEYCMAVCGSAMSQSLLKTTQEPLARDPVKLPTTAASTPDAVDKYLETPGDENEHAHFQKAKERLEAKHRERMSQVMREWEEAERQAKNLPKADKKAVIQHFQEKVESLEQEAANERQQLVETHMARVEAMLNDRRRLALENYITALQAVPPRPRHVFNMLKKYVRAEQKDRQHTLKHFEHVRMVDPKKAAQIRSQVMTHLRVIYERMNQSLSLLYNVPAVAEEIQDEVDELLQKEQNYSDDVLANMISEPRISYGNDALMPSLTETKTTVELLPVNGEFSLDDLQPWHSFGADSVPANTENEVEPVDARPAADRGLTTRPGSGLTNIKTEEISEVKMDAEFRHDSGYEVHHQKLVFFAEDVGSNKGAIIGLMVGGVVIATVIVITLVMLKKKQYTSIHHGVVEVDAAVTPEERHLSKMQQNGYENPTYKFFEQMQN
T1 sequence (P56817 whole entry): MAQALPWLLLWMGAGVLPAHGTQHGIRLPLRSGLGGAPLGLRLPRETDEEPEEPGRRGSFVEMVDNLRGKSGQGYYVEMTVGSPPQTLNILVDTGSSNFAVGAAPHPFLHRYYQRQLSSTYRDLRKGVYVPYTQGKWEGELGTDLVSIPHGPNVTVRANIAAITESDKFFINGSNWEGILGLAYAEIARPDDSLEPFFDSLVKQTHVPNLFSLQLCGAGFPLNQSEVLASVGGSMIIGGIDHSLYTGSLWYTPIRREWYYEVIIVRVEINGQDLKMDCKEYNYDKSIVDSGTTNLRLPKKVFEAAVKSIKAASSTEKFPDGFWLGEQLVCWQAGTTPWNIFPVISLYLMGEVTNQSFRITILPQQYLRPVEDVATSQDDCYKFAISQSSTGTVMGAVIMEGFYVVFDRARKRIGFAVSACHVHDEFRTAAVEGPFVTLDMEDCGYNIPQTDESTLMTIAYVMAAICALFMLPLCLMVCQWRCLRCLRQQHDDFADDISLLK
T4 sequence (P06276 whole entry): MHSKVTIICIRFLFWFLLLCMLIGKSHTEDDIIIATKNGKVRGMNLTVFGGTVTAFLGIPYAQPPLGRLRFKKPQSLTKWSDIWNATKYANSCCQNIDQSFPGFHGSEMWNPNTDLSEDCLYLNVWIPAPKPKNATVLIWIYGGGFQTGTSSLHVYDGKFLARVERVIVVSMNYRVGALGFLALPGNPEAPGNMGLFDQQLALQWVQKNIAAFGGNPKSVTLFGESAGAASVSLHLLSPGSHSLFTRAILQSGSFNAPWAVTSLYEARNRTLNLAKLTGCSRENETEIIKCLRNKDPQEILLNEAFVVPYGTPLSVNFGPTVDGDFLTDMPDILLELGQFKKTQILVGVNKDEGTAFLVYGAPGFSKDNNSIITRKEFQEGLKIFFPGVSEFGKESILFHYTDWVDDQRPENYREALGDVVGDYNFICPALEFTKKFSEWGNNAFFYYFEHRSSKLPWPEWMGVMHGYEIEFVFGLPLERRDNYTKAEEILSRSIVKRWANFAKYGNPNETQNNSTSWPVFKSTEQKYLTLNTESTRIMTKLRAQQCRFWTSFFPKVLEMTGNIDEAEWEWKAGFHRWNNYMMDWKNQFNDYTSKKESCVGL
Cytochrome P450 2D6, sequence (P10635 whole entry): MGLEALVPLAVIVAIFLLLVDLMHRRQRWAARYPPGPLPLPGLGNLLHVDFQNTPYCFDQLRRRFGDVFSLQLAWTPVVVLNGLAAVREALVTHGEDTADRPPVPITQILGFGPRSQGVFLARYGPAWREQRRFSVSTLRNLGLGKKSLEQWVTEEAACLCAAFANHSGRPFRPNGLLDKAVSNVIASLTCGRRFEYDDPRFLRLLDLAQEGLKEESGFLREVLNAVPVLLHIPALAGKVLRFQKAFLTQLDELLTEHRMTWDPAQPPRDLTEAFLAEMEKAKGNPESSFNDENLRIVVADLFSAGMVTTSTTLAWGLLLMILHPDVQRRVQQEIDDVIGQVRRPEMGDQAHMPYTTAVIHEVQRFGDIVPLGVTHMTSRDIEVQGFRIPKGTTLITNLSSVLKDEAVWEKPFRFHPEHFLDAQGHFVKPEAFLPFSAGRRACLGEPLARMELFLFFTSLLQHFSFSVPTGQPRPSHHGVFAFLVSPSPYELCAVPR

With `CC(C)(C)CNC[C@@H](O)[C@H](Cc1ccccc1)NCC(c1ccccc1)c1ccccc1`, the pIC50 against Cholinesterase [1] was 6.23; at GABA transporter 4, 5.01; in data set [5], 4.07; in [6], 4.58; against Cholinesterase [7], 6.72. Also, the inhibition in [2] is under 10%; against Beta-secretase 1 [3] it was 63.9%; in data set [4], 34.7%.

Take `CC(C)(C)c1ccc(CNCC(O)[C@H](Cc2ccccc2)NC(=O)CC(c2ccccc2)c2ccccc2)cc1` (single isomer, unassigned): the pIC50 at Cholinesterase [1] was 6.77; against Beta-secretase 1 [10], 5.21; against Cholinesterase [7] it was 6.06. For the same compound, the inhibition was under 10% in data set [2] and 20.5% in data set [4]. The Activity entry in [8] is reported as “Non-Toxic”; in [9], “Toxic”.

Take `O=C(CC(c1ccccc1)c1ccccc1)N[C@@H](Cc1ccccc1)[C@H](O)CNCC1CC1`: the pIC50 was 5.49 on Cholinesterase [1], 4.45 at GABA transporter 4 and 4.40 in data set [6]. Further, the inhibition was under 10% in [2]; 60% in data set [11]; 41.1% against Cholinesterase [12]; under 10% on Beta-secretase 1 [3]; 83% in data set [13]; 20.5% in data set [4]. Also, in data set [14], the inhibition came out at 51%.

Consider `CC(C)c1cccc(CNC[C@@H](O)[C@H](Cc2ccccc2)NC(=O)CC(c2ccccc2)c2ccccc2)c1`, for which the pIC50 was 6.19 against Cholinesterase [1], 5.34 on Beta-secretase 1 [10] and 6.30 against Cholinesterase [7]. In addition, the inhibition in data set [2] worked out at 24%; in [4], 20.5%. Besides, the Activity result in data set [15] is on record as “Toxic”; in [16], “Non-Toxic”. Besides, the “inhibition (INH)” value against Cytochrome P450 2D6 and on Cytochrome P450 3A4 was “Active” throughout. In addition, in data set [17], the remaining at 2 h is 67.9%.

On to `O=C(CC(c1ccccc1)c1ccccc1)N[C@@H](Cc1ccccc1)[C@@H](O)CNCc1cccc(C(F)(F)F)c1`, for which the inhibition in data set [2] is 36.8%; at Cholinesterase [12], under 10%; in data set [18] it was 29.5%; in data set [4] it was 20.5%. The same compound gave a pIC50 at Beta-secretase 1 [10] of 5.08.

Turning to `O=C(N[C@@H](Cc1ccccc1)[C@H](O)CNCC(F)(F)F)C(c1ccccc1)c1ccccc1`, the inhibition in [2] is under 10%; in data set [11], 87%; on Cholinesterase [12], under 10%; in data set [18], 26.3%; in data set [19] it was 92%; in [13], 100%. The figures for the inhibition in data set [4], in data set [20] and in data set [14] were 20.5%, 102% and 92%, respectively. Besides, at Beta-secretase 1 [10], the pIC50 was 4.81.

In the case of `O=C(CC(c1ccccc1)c1ccccc1)N[C@@H](Cc1ccccc1)[C@H](O)CNCC(F)(F)F`, the inhibition was under 10% in data set [2]; under 10% at Cholinesterase [12]; 24.4% against Beta-secretase 1 [3]; 19.2% in [18]; 20.5% in [4].

Turning to `COc1cccc(CNC[C@@H](O)[C@H](Cc2ccccc2)NC(=O)C(c2ccccc2)c2ccccc2)c1`, the pIC50 was 5.81 against Cholinesterase [1] and 4.48 at GABA transporter 4. Further, the inhibition in [2] was under 10%; in [11], 61%; on Cholinesterase [12], 56.5%; on Beta-secretase 1 [3], 37%; in data set [19] it was 61%; in data set [13], 85%. Besides, the inhibition in data set [4] stood at 20.5%; in [14], 67%.

For `CC(C)(NC[C@@H](O)[C@H](Cc1ccccc1)NC(=O)C(c1ccccc1)c1ccccc1)c1ccccc1`, the inhibition in [2] is under 10%; at Cholinesterase [12], under 10%; at Beta-secretase 1 [3], 76.1%; in data set [18], 45.9%; in [4] it was 20.5%.

On to `O=C(CC(c1ccccc1)c1ccccc1)N[C@@H](Cc1ccccc1)[C@@H](O)CNCc1ccccc1`, for which the inhibition in [2] is under 10%; in data set [11], 74%; against Cholinesterase [12], 67.7%; in [19] it was 61%; in [13], 83%; in data set [4] it was 20.5%. Further, the inhibition in [14] was 76%. The pIC50 against Beta-secretase 1 [10] is 4.76.

For the compound `C[C@H](NC[C@@H](O)[C@H](Cc1ccccc1)NC(=O)C(c1ccccc1)c1ccccc1)c1ccccc1`, at Cholinesterase [1], the pIC50 was 5.74. In addition, the inhibition in [2] is under 10%; against Cholinesterase [12], 14.5%; against Beta-secretase 1 [3] it was 61.7%; in data set [19], 77%; in data set [13], 81%; in [4], 20.5%. Further, the inhibition in data set [20] amounted to 79%; in data set [14], 84%.

On to `O=C(N[C@@H](Cc1ccccc1)[C@H](O)CNCC1CC1)C(c1ccccc1)c1ccccc1`, for which the results for the pIC50 on Cholinesterase [1] and at GABA transporter 4 were 5.49 and 4.13, respectively. In addition, the inhibition in data set [2] was under 10%; in data set [11], 85%; on Cholinesterase [12], 12.3%; against Beta-secretase 1 [3], 44.4%; in data set [19], 51%; in data set [13], 74%. The inhibition in [4] is 20.5%; in data set [14], 54%.
